# Source: patent US20230192705A1, “SHP2 INHIBITORS, COMPOSITIONS AND USES THEREOF” (Betta Pharmaceuticals Co., Ltd, priority 2020, published 2023)
# Molecular target: T1, SHP2 (Homo sapiens, UniProt Q06124)
# T1 sequence (Q06124 1-593): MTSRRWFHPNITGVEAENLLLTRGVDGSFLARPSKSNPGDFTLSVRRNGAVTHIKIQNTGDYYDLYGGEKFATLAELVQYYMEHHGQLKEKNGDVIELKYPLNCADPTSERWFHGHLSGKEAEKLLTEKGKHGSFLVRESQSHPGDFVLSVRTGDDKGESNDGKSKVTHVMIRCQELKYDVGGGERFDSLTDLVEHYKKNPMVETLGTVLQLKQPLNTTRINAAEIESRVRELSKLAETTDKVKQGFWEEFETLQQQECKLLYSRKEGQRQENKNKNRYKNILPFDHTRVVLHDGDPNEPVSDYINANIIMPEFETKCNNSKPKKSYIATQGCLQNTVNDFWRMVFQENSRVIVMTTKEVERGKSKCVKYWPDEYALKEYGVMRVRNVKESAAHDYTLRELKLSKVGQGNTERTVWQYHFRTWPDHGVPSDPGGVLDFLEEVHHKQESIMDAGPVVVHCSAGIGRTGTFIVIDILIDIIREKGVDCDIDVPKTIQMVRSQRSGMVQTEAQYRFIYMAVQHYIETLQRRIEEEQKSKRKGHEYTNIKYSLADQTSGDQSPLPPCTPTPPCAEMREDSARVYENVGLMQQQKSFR
# Assay: SHP2 allosteric inhibitor enzyme activity assay (DiFMUP fluorescence)
# Format: biochemical
# Conditions: class symbols
# Outline: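 SHP2 activated by 0.5 μM IRS1_pY1172(dPEG8)pY1222 peptide, 0.2 ng enzyme per well, 1 h at room temperature with compound (1 μM top, 3-fold series), then DiFMUP substrate 1 h. Buffer: 60 mM HEPES, 75 mM NaCl, 75 mM KCl, 0.05% BRIJ-35, 1 mM EDTA, 5 mM DTT. Fluorescence ex 340/em 450 nm; IC50 by variable-slope fit.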
row,IC50 [nM],SMILES
1,≤ 20,"N[C@@H]1c2ccccc2CC12CCN(c1nc3[nH]nc(C4=CS(=O)(=O)Nc5ccccc54)c3c(=O)[nH]1)CC2 [Example 183, (S)-6-(1-amino-1,3-dihydrospiro[indene-2,4′-piperidin]-1′-yl)-3-(2,2-dioxido-1H-benzo[c][1,2]thiazin-4-yl)-1,5-dihydro-4H-pyrazolo[3,4-d]pyrimidin-4-one]"
2,≤ 20,"CN1c2ccccc2C(c2n[nH]c3nc(N4CCC5(CC4)Cc4ccccc4[C@H]5N)[nH]c(=O)c23)=CS1(=O)=O [Example 184, (S)-6-(1-amino-1,3-dihydrospiro[indene-2,4′-piperidin]-1′-yl)-3-(1-methyl-2,2-dioxido-1H-benzo[c][1,2]thiazin-4-yl)-1,5-dihydro-4H-pyrazolo[3,4-d]pyrimidin-4-one]"
3,≤ 20,"N[C@@H]1c2ccccc2CC12CCN(c1nc3[nH]nc(C4=C(F)CCc5ncccc54)c3c(=O)[nH]1)CC2 [Example 186, (S)-6-(1-amino-1,3-dihydrospiro[indene-2,4′-piperidin]-1′-yl)-3-(6-fluoro-7,8-dihydroquinolin-5-yl)-1,5-dihydro-4H-pyrazolo[3,4-d]pyrimidin-4-one]"
4,≤ 20,"N[C@@H]1c2ccccc2CC12CCN(c1nc3[nH]nc(C4=C(F)CCc5nc(C(F)(F)F)ccc54)c3c(=O)[nH]1)CC2 [Example 187, (S)-6-(1-amino-1,3-dihydrospiro[indene-2,4′-piperidin]-1′-yl)-3-(6-fluoro-2-(trifluoromethyl)-7,8-dihydroquinolin-5-yl)-1,5-dihydro-4H-pyrazolo[3,4-d]pyrimidin-4-one]"
5,≤ 20,"N[C@@H]1c2ccccc2CC12CCN(c1nc3[nH]nc(C4=C(F)CCc5nc(Cl)ccc54)c3c(=O)[nH]1)CC2 [Example 188, (S)-6-(1-amino-1,3-dihydrospiro[indene-2,4′-piperidin]-1′-yl)-3-(2-chloro-6-fluoro-7,8-dihydroquinolin-5-yl)-1,5-dihydro-4H-pyrazolo[3,4-d]pyrimidin-4-one]"
6,≤ 20,"CC1(C)Cc2nc(C(F)(F)F)ccc2C(c2n[nH]c3nc(N4CCC5(CC4)Cc4ccccc4[C@H]5N)[nH]c(=O)c23)=C1F [Example 189, (S)-6-(1-amino-1,3-dihydrospiro[indene-2,4′-piperidin]-1′-yl)-3-(6-fluoro-7,7-dimethyl-2-(trifluoromethyl)-7,8-dihydroquinolin-5-yl)-1,5-dihydro-4H-pyrazolo[3,4-d]pyrimidin-4-one]"
7,≤ 20,"CC1(C)Cc2ncccc2C(c2n[nH]c3nc(N4CCC5(CC4)Cc4ccccc4[C@H]5N)[nH]c(=O)c23)=C1F [Example 190, (S)-6-(1-amino-1,3-dihydrospiro[indene-2,4′-piperidin]-1′-yl)-3-(6-fluoro-7,7-dimethyl-7,8-dihydroquinolin-5-yl)-1,5-dihydro-4H-pyrazolo[3,4-d]pyrimidin-4-one]"
8,≤ 20,"COc1ccc2c(c1)[C@@H](N)C1(CCN(c3nc4[nH]nc(C5(c6ccccc6)CC5)c4c(=O)[nH]3)CC1)C2 [Example 192, (S)-6-(1-amino-6-methoxy-1,3-dihydrospiro[indene-2,4′-piperidin]-1′-yl)-3-(1-phenylcyclopropyl)-1,5-dihydro-4H-pyrazolo[3,4-d]pyrimidin-4-one]"
9,≤ 20,"N[C@@H]1c2nc(Cl)sc2CC12CCN(c1nc3[nH]nc(C4(c5ccccc5)CC4)c3c(=O)[nH]1)CC2 [Example 193, (S)-6-(4-amino-2-chloro-4,6-dihydrospiro[cyclopenta[d]thiazole-5,4′-piperidin]-1′-yl)-3-(1-phenylcyclopropyl)-1,5-dihydro-4H-pyrazolo[3,4-d]pyrimidin-4-one]"
10,≤ 20,"N[C@@H]1c2cc(Cl)ccc2CC12CCN(c1nc3[nH]nc(C4(c5ccccc5)CC4)c3c(=O)[nH]1)CC2 [Example 194, (S)-6-(1-amino-6-chloro-1,3-dihydrospiro[indene-2,4′-piperidin]-1′-yl)-3-(1-phenylcyclopropyl)-1,5-dihydro-4H-pyrazolo[3,4-d]pyrimidin-4-one]"
11,≤ 20,"N[C@@H]1c2cc(F)ccc2CC12CCN(c1nc3[nH]nc(C4(c5ccccc5)CC4)c3c(=O)[nH]1)CC2 [Example 195, (S)-6-(1-amino-6-fluoro-1,3-dihydrospiro[indene-2,4′-piperidin]-1′-yl)-3-(1-phenylcyclopropyl)-1,5-dihydro-4H-pyrazolo[3,4-d]pyrimidin-4-one]"
12,≤ 20,"CSc1ccc2c(c1)[C@@H](N)C1(CCN(c3nc4[nH]nc(C5(c6ccccc6)CC5)c4c(=O)[nH]3)CC1)C2 [Example 196, (S)-6-(1-amino-6-(methylthio)-1,3-dihydrospiro[indene-2,4′-piperidin]-1′-yl)-3-(1-phenylcyclopropyl)-1,5-dihydro-4H-pyrazolo[3,4-d]pyrimidin-4-one]"
13,≤ 20,"N#Cc1ccc2c(c1)[C@@H](N)C1(CCN(c3nc4[nH]nc(C5(c6ccccc6)CC5)c4c(=O)[nH]3)CC1)C2 [Example 197, (S)-1-amino-1′-(4-oxo-3-(1-phenylcyclopropyl)-4,5-dihydro-1H-pyrazolo[3,4-d]pyrimidin-6-yl)-1,3-dihydrospiro[indene-2,4′-piperidine]-6-carbonitrile]"
14,20 to 60,"N[C@@H]1Cc2ccccc2C12CCN(c1nc3[nH]nc(C4(c5ccccc5)CC4)c3c(=O)[nH]1)CC2 [Example 198, (R)-6-(2-amino-2,3-dihydrospiro[indene-1,4′-piperidin]-1′-yl)-3-(1-phenylcyclopropyl)-1,5-dihydro-4H-pyrazolo[3,4-d]pyrimidin-4-one]"
15,20 to 60,"N[C@@H]1Cn2nccc2C12CCN(c1nc3[nH]nc(C4(c5ccccc5)CC4)c3c(=O)[nH]1)CC2 [Example 199, (S)-6-(5′-amino-5′,6′-dihydrospiro[piperidine-4,4′-pyrrolo[1,2-b]pyrazol]-1-yl)-3-(1-phenylcyclopropyl)-1,5-dihydro-4H-pyrazolo[3,4-d]pyrimidin-4-one]"
16,≤ 20,"N[C@@H]1c2cccnc2CC12CCN(c1nc3[nH]nc(C4(c5ccccc5)CC4)c3c(=O)[nH]1)CC2 [Example 200, (S)-6-(5-amino-5,7-dihydrospiro[cyclopenta[b]pyridine-6,4′-piperidin]-1-yl)-3-(1-phenylcyclopropyl)-1,5-dihydro-4H-pyrazolo[3,4-d]pyrimidin-4-one]"
17,≤ 20,"N[C@@H]1c2ccccc2CC12CCN(c1nc3[nH]nc(C4(c5cccc(C6CC6)c5)CC4)c3c(=O)[nH]1)CC2 [Example 218, (S)-6-(1-amino-1,3-dihydrospiro[indene-2,4′-piperidin]-1′-yl)-3-(1-(3-cyclopropylphenyl)cyclopropyl)-1,5-dihydro-4H-pyrazolo[3,4-d]pyrimidin-4-one]"
18,≤ 20,"N[C@@H]1c2ccccc2CC12CCN(c1nc3[nH]nc(C4(c5ccncc5)CC4)c3c(=O)[nH]1)CC2 [Example 219, (S)-6-(1-amino-1,3-dihydrospiro[indene-2,4′-piperidin]-1′-yl)-3-(1-(pyridin-4-yl)cyclopropyl)-1,5-dihydro-4H-pyrazolo[3,4-d]pyrimidin-4-one]"
19,≤ 20,"N[C@@H]1c2ccccc2CC12CCN(c1nc3[nH]nc(C4(c5ccccc5F)CC4)c3c(=O)[nH]1)CC2 [Example 220, (S)-6-(1-amino-1,3-dihydrospiro[indene-2,4′-piperidin]-1′-yl)-3-(1-(2-fluorophenyl)cyclopropyl)-1,5-dihydro-4H-pyrazolo[3,4-d]pyrimidin-4-one]"
20,≤ 20,"CP(C)(=O)c1cccc(C2(c3n[nH]c4nc(N5CCC6(CC5)Cc5ccccc5[C@H]6N)[nH]c(=O)c34)CC2)c1 [Example 224, (S)-6-(1-amino-1,3-dihydrospiro[indene-2,4′-piperidin]-1′-yl)-3-(1-(3-(dimethylphosphoryl)phenyl)cyclo-propyl)-1,5-dihydro-4H-pyrazolo[3,4-d]pyrimidin-4-one]"
21,≤ 20,"CSc1cccc(C2(c3n[nH]c4nc(N5CCC6(CC5)Cc5ccccc5[C@H]6N)[nH]c(=O)c34)CC2)c1 [Example 225, (S)-6-(1-amino-1,3-dihydrospiro[indene-2,4′-piperidin]-1′-yl)-3-(1-(3-(methylthio)phenyl)cyclopropyl)-1,5-dihydro-4H-pyrazolo[3,4-d]pyrimidin-4-one]"
22,≤ 20,"N[C@@H]1c2ccccc2CC12CCN(c1nc3[nH]nc(C4(c5cccc(CO)c5)CC4)c3c(=O)[nH]1)CC2 [Example 226, (S)-6-(1-amino-1,3-dihydrospiro[indene-2,4′-piperidin]-1′-yl)-3-(1-(3-(hydroxymethyl)phenyl)cyclo-propyl)-1,5-dihydro-4H-pyrazolo[3,4-d]pyrimidin-4-one]"
23,≤ 20,"N[C@@H]1c2ccccc2CC12CCN(c1nc3[nH]nc(C4(c5cccc(OC6CC6)c5)CC4)c3c(=O)[nH]1)CC2 [Example 227, (S)-6-(1-amino-1,3-dihydrospiro[indene-2,4′-piperidin]-1′-yl)-3-(1-(3-cyclopropoxyphenyl)cyclopropyl)-1,5-dihydro-4H-pyrazolo[3,4-d]pyrimidin-4-one]"
